# Data: US20190240225A1, “COMBINATION OF A BCL-2 INHIBITOR AND A MCL-1 INHIBITOR, USES AND PHARMACEUTICAL COMPOSITIONS THEREOF” (LES LABORATOIRES SERVIER, priority 2016, published 2019)
# pIC50: −log10 of the molar value. Where two headings read alike, the source gives them in different places.
# Legend:
# AMO1 = assay: MTT cell viability assay, myeloma cell line; assay type: cell-based, human
# Procedure: (§1) Cell lines: Human myeloma cell lines (HMCLs) were derived from primary myeloma cells cultured in RPMI 1640 medium supplemented with 5% fetal calf serum from and 3 ng/mL recombinant IL-6 for IL-6 dependent cell lines. HMCLs are representative of phenotypic and genomic heterogeneity and the variability in patient's response to therapy.
# (§2) MTT assay: Cell viability is measured using MTT (3-(4,5-dimethylthiazol-2-yl)-2,5-diphenyltetrazolium bromide) colorimetric survival assay. Cells are incubated with compounds in 96-well plates containing a final volume of 100 μl/well time. (2R)-2-{[(5Sa)-5-{3-chloro-2-methyl-4-[2-(4-methylpiperazin-1-yl)ethoxy]phenyl}-6-(5-fluorofuran-2-yl)thieno[2,3-d]pyrimidin-4-yl]oxy}-3-(2-{[1-(2,2,2-trifluoroethyl)-1H-pyrazol-5-yl]methoxy}phenyl)propanoic acid (Compound 2) is used at 9 different concentrations accordingly to single agent sensitivity. N-(4-hydroxyphenyl)-3-{6-[((3S)-3-(4-morpholinylmethyl)-3,4-dihydro-2(1H)-isoquinolinyl)carbonyl]-1,3-benzodioxol-5-yl}-N-phenyl-5,6,7,8-tetrahydro-1-indolizine carboxamide hydrochloride (Compound 1, HCl) is used at a fixed dose—1 μM. At the end of each treatment, cells are incubated with 1 mg/mL MTT (50 μl MTT solution 2.5 mg/ml for each well) at 37° C. for 3 hours allowing the MTT to be metabolized. Lysis buffer (100 μl Lysis buffer: DMF (2:3)/SDS (1:3)) is added into each well to dissolve formazan cristals and after 18 h of incubation, absorbance in viable cells is measured at 570 nm using a spectrophotometer.
# (§3) The sensitivity of 27 human multiple myeloma cell lines to Compound 1, Compound 2 or to Compound 2 in the presence of 1 μM of Compound 1 was analyzed by using MTT cell viability assay. 50% inhibitory concentrations (IC50, in nM) were determined.
# NAN6 = assay: MTT cell viability assay, myeloma cell line; assay type: cell-based, human
# Procedure: as §1, §2, §3
# XG1 = assay: MTT cell viability assay, myeloma cell line; assay type: cell-based, human
# Procedure: as §1, §2, §3
# KMM1 = assay: MTT cell viability assay, myeloma cell line; assay type: cell-based, human
# Procedure: as §1, §2, §3
# ANBL6 = assay: MTT cell viability assay, myeloma cell line; assay type: cell-based, human
# Procedure: as §1, §2, §3
# KMS11 = assay: MTT cell viability assay, myeloma cell line; assay type: cell-based, human
# Procedure: as §1, §2, §3
# LP1 = assay: MTT cell viability assay, myeloma cell line; assay type: cell-based, human
# Procedure: as §1, §2, §3
# OPM2 = assay: MTT cell viability assay, myeloma cell line; assay type: cell-based, human
# Procedure: as §1, §2, §3
# KMS12BM = assay: MTT cell viability assay, myeloma cell line; assay type: cell-based, human
# Procedure: as §1, §2, §3
# XG7 = assay: MTT cell viability assay, myeloma cell line; assay type: cell-based, human
# Procedure: as §1, §2, §3
# MM1S = assay: MTT cell viability assay, myeloma cell line; assay type: cell-based, human
# Procedure: as §1, §2, §3
# NAN3 = assay: MTT cell viability assay, myeloma cell line; assay type: cell-based, human; settings: single agent
# Procedure: as §1, §2, §3
# NAN1 = assay: MTT cell viability assay, myeloma cell line; assay type: cell-based, human
# Procedure: as §1, §2, §3
# U266 = assay: MTT cell viability assay, myeloma cell line; assay type: cell-based, human
# Procedure: as §1, §2, §3
# NCI-H929 = assay: MTT cell viability assay, myeloma cell line; assay type: cell-based, human
# Procedure: as §1, §2, §3
# NAN8 = assay: MTT cell viability assay, myeloma cell line; assay type: cell-based, human
# Procedure: as §1, §2, §3
# JIM3 = assay: MTT cell viability assay, myeloma cell line; assay type: cell-based, human
# Procedure: as §1, §2, §3
# BCN = assay: MTT cell viability assay, myeloma cell line; assay type: cell-based, human
# Procedure: as §1, §2, §3
# L363 = assay: MTT cell viability assay, myeloma cell line; assay type: cell-based, human
# Procedure: as §1, §2, §3
# NAN9 = assay: MTT cell viability assay, myeloma cell line; assay type: cell-based, human
# Procedure: as §1, §2, §3
# XG3 = assay: MTT cell viability assay, myeloma cell line; assay type: cell-based, human
# Procedure: as §1, §2, §3
# SBN = assay: MTT cell viability assay, myeloma cell line; assay type: cell-based, human
# Procedure: as §1, §2, §3
# XG2 = assay: MTT cell viability assay, myeloma cell line; assay type: cell-based, human
# Procedure: as §1, §2, §3
# XG11 = assay: MTT cell viability assay, myeloma cell line; assay type: cell-based, human
# Procedure: as §1, §2, §3
# JJN3 = assay: MTT cell viability assay, myeloma cell line; assay type: cell-based, human
# Procedure: as §1, §2, §3
# XG6 = assay: MTT cell viability assay, myeloma cell line; assay type: cell-based, human
# Procedure: as §1, §2, §3
# RPMI8226 = assay: MTT cell viability assay, myeloma cell line; assay type: cell-based, human
# Procedure: as §1, §2, §3
# primary AML blasts = assay: Cell viability (sytox blue, flow cytometry) of primary AML patient samples, LC50; assay type: cell-based, human; settings: 54 primary AML samples; 48 h; RPMI/15% FCS; combination at 1:1
# Procedure: Primary AML patient samples: Bone marrow or peripheral blood samples from patients with AML were collected after informed consent in accordance with guidelines approved by The Alfred Hospital Human research ethics committees. Mononuclear cells were isolated by Ficoll-Paque (GE Healthcare, VIC, Aus) density-gradient centrifugation, followed by red cell depletion in ammonium chloride (NH4Cl) lysis buffer at 37° C. for 10 minutes. Cells were then re-suspended in phosphate-buffered saline containing 2% Fetal Bovine serum (Sigma, NSW, Aus). Mononuclear cells were then suspended in RPMI-1640 (GIBCO VIC, Aus) medium containing penicillin and streptomycin (GIBCO) and heat inactivated fetal bovine serum 15% (Sigma).
# Cell Viability: Freshly purified mononuclear cells from AML patient samples were adjusted to a concentration of 2.5×10^5/ml and 100 μL of cells aliquoted per well into 96 well plates (Sigma). […] For combinations assays, drugs were added at a 1:1 ratio from 1 nM to 10 μM and incubated at 37° C. 5% CO2. Cells were then stained with sytox blue nucleic acid stain (Invitrogen, VIC, Aus) and fluorescence measured by flow cytometric analysis using the LSR-II Fortessa (Becton Dickinson, NSW, Aus). FACSDiva software was used for data collection, and FlowJo software for analysis. Blast cells were gated using forward and side scatter properties. […]
# MV4;11 AML cells = assay: Luciferase MV4;11 AML engraftment model in NSG mice; assay type: in vivo, mouse; settings: MV4;11-luciferase, Compound 1, HCl 100 mg/kg oral daily, Compound 2 25 mg/kg IV twice weekly, 4 weeks
# Procedure: In vivo experimentation AML engraftment: Animal studies were performed under the institutional guidelines approved by the Alfred Medical Research and Education Precinct Animal Ethics Committee, MV4; 11 cells transduced with the luciferase reporter (pLUC2) were intravenously injected at 1×10^5 cells into irradiated (100 Rad) non-obese diabetic/severe combined immunodeficient (NOD/SCID/IL2rγnull) mice as previously described (Jin et al., Cell Stem Cell 2 Jul. 2009, Volume 5, Issue 1, Pages 31-42). Engraftment was measured at day 7 by quantifying the percentage of hCD45+ cells in the PB by flow cytometry and by IVIS imaging of bioluminescent MV4; 11 cells. At day 10, mice received daily oral gavage of Compound 1, HCl (200 μL 100mg/kg—dosage expressed as the free base) dissolved in PEG400 (Sigma), absolute ethanol (Sigma) and distilled H20 40:10:60 or Compound 2 (200 μL 25 mg/kg) twice weekly dissolved in 50% 2-hydroxypropyl)-β-cyclodextrin (Sigma) and 50% 50mM HCl or the drug combination or vehicle, over 4 weeks. Blood counts were determined using a hematology analyzer (BioRad, Gladesville, NSW). […]
# To verify the in vivo activity of this approach, luciferase expressing MV4; 11 AML cells were engrafted into NSG mice and treated with Compound 1 (HCl salt) or Compound 2 alone, or in combination and tumour burden assessed after 14 and 21 days of therapy (FIG. 2B). […]
# [1] = + 1 μM Compound 1, HCl, read-out: IC50 of Compound 2 in the presence of 1 μM of Compound 1, HCl
smiles,measurement,setting,value
"Cc1c(-c2c(-c3ccc(F)o3)sc3ncnc(O[C@H](Cc4ccccc4OCc4ccnn4CC(F)(F)F)C(=O)O)c23)ccc(OCCN2CCN(C)CC2)c1Cl [Compound 2, (2R)-2-{[(5Sa)-5-{3-chloro-2-methyl-4-[2-(4-methylpiperazin-1-yl)ethoxy]phenyl}-6-(5-fluorofuran-2-yl)thieno[2,3-d]pyrimidin-4-yl]oxy}-3-(2-{[1-(2,2,2-trifluoroethyl)-1H-pyrazol-5-yl]methoxy}phenyl)propanoic acid]",pIC50,AMO1; [1],9.70
same,pIC50,"AMO1; single agent, read-out: IC50",9.30
same,pIC50,NAN6; [1],8.74
same,pIC50,"NAN6; single agent, read-out: IC50",8.15
same,pIC50,XG1; [1],9.70
same,pIC50,"XG1; single agent, read-out: IC50",8.23
same,pIC50,KMM1; [1],8.07
same,pIC50,"KMM1; single agent, read-out: IC50",7.24
same,pIC50,ANBL6; [1],7.68
same,pIC50,"ANBL6; single agent, read-out: IC50",7.10
same,pIC50,KMS11; [1],8.41
same,pIC50,"KMS11; single agent, read-out: IC50",7.36
same,pIC50,LP1; [1],8.54
same,pIC50,"LP1; single agent, read-out: IC50",6.80
same,pIC50,OPM2; [1],8.92
same,pIC50,"OPM2; single agent, read-out: IC50",8.03
same,pIC50,KMS12BM; [1],10.52
same,pIC50,"KMS12BM; single agent, read-out: IC50",7.36
same,pIC50,XG7; [1],8.10
same,pIC50,"XG7; single agent, read-out: IC50",7.79
same,pIC50,MM1S; [1],7.64
same,pIC50,"MM1S; single agent, read-out: IC50",6.86
same,pIC50,NAN3,8.82
same,pIC50,NAN1; [1],8.85
same,pIC50,"NAN1; single agent, read-out: IC50",8.24
same,pIC50,U266; [1],7.83
same,pIC50,"U266; single agent, read-out: IC50",6.77
same,pIC50,NCI-H929; [1],9.00
same,pIC50,"NCI-H929; single agent, read-out: IC50",8.64
same,pIC50,NAN8; [1],7.49
same,pIC50,"NAN8; single agent, read-out: IC50",7.12
same,pIC50,JIM3; [1],7.59
same,pIC50,"JIM3; single agent, read-out: IC50",7.25
same,pIC50,BCN; [1],7.23
same,pIC50,"BCN; single agent, read-out: IC50",5.95
same,pIC50,L363; [1],8.47
same,pIC50,"L363; single agent, read-out: IC50",8.12
same,pIC50,NAN9; [1],8.96
same,pIC50,"NAN9; single agent, read-out: IC50",8.01
same,pIC50,XG3; [1],8.89
same,pIC50,"XG3; single agent, read-out: IC50",8.21
same,pIC50,SBN; [1],7.84
same,pIC50,"SBN; single agent, read-out: IC50",6.66
same,pIC50,XG2; [1],8.57
same,pIC50,"XG2; single agent, read-out: IC50",8.19
same,pIC50,XG11; [1],8.08
same,pIC50,"XG11; single agent, read-out: IC50",6.43
same,pIC50,JJN3; [1],8.62
same,pIC50,"JJN3; single agent, read-out: IC50",7.81
same,pIC50,XG6; [1],9.30
same,pIC50,"XG6; single agent, read-out: IC50",7.72
same,pIC50,RPMI8226; [1],8.52
same,pIC50,"RPMI8226; single agent, read-out: IC50",7.56
same,proportion of primary AML samples highly sensitive (LC50<10 nM),primary AML blasts,Approximately 20%
same,"in vivo anti-leukaemic activity (luciferase tumour burden, survival)",MV4;11 AML cells,reduced luciferase bulk
